Activity calls are given as the source filed them. The rule behind the calls is not given here. Square brackets hold non-standard residues; d marks the D form. Peptide text beside a SMILES is read from it. * marks the point of attachment. X2 = CC(=O)N[C@H]1[C@H](O[C@H]2[C@@H](O)[C@H](O)[C@@H](CO)O[C@@H]2*)O[C@H](CO)[C@@H](O[C@@H]2O[C@H](CO)[C@H](O)[C@H](O)[C@H]2O)[C@@H]1O; Orn(CH(NH2)2) = NC(N)NCCC[C@H](N)C(=O)O; Hexanoyl(5-oxo) = CC(=O)CCCC(=O)*

Assay [1] concerns the target Lactotransferrin (Homo sapiens) (UniProt P02788). Briefly: Binding affinity to biotin-labeled lactoferrin (unknown origin) at 10 ug/ml in pH 5.6 MES buffer by fluorescence microarray method.
Assay [2] is filed under the species Homo sapiens. Briefly: Binding affinity to biotin-labeled human recombinant laminin-2 at 10 ug/ml in pH 7.4 Tris buffer by fluorescence microarray method.
Assay [3] deals with Lactotransferrin (Homo sapiens) (UniProt P02788). The assay can be described thus: Binding affinity to biotin-labeled lactoferrin (unknown origin) at 10 ug/ml in pH 7.4 Tris buffer by fluorescence microarray method.
The next assay has as its system Canavalia ensiformis. The assay can be described thus: Binding affinity to biotin-labeled Canavalia ensiformis agglutinin in pH 7.4 Tris buffer by fluorescence microarray method.
The test system of assay [4] is Sambucus racemosa subsp. sieboldiana. Briefly: Binding affinity to biotin-labeled Sambucus sieboldiana agglutinin in pH 7.4 Tris buffer by fluorescence microarray method.
The next assay relates to Arachis hypogaea. The assay can be described thus: Binding affinity to biotin-labeled Arachis hypogaea agglutinin in pH 7.4 Tris buffer by fluorescence microarray method.
The subject of another assay is Maackia amurensis. The assay can be described thus: Binding affinity to biotin-labeled Maackia amurensis agglutinin in pH 7.4 Tris buffer by fluorescence microarray method.
A further assay concerns Erythrina crista-galli. Briefly: Binding affinity to biotin-labeled Erythrina crista-galli agglutinin in pH 7.4 Tris buffer by fluorescence microarray method.
For assay [5], the target named is Laminin subunit alpha-1 (Homo sapiens) (UniProt P25391). The assay can be described thus: Binding affinity to biotin-labeled human recombinant laminin-1 at 10 ug/ml in pH 5.6 MES buffer by fluorescence microarray method.
The subject of another assay is Triticum aestivum. Briefly: Binding affinity to biotin-labeled Wheat germ agglutinin in pH 7.4 Tris buffer by fluorescence microarray method.
The nature of assay [6]: Binding affinity to biotin-labeled Agaricus bisporus agglutinin in pH 7.4 Tris buffer by fluorescence microarray method.
The next assay relates to Datura stramonium. The assay can be described thus: Binding affinity to biotin-labeled Datura stramonium agglutinin in pH 7.4 Tris buffer by fluorescence microarray method.
Assay [7] has as its target Laminin subunit alpha-1 (Homo sapiens) (UniProt P25391). The assay can be described thus: Binding affinity to biotin-labeled human recombinant laminin-1 at 10 ug/ml in pH 7.4 Tris buffer by fluorescence microarray method.
The species named for assay [8] is Homo sapiens. Briefly: Binding affinity to biotin-labeled human recombinant laminin-2 at 10 ug/ml in 5.6 MES buffer by fluorescence microarray method.

Laminin subunit alpha-1 (Homo sapiens), sequence (P25391 whole entry): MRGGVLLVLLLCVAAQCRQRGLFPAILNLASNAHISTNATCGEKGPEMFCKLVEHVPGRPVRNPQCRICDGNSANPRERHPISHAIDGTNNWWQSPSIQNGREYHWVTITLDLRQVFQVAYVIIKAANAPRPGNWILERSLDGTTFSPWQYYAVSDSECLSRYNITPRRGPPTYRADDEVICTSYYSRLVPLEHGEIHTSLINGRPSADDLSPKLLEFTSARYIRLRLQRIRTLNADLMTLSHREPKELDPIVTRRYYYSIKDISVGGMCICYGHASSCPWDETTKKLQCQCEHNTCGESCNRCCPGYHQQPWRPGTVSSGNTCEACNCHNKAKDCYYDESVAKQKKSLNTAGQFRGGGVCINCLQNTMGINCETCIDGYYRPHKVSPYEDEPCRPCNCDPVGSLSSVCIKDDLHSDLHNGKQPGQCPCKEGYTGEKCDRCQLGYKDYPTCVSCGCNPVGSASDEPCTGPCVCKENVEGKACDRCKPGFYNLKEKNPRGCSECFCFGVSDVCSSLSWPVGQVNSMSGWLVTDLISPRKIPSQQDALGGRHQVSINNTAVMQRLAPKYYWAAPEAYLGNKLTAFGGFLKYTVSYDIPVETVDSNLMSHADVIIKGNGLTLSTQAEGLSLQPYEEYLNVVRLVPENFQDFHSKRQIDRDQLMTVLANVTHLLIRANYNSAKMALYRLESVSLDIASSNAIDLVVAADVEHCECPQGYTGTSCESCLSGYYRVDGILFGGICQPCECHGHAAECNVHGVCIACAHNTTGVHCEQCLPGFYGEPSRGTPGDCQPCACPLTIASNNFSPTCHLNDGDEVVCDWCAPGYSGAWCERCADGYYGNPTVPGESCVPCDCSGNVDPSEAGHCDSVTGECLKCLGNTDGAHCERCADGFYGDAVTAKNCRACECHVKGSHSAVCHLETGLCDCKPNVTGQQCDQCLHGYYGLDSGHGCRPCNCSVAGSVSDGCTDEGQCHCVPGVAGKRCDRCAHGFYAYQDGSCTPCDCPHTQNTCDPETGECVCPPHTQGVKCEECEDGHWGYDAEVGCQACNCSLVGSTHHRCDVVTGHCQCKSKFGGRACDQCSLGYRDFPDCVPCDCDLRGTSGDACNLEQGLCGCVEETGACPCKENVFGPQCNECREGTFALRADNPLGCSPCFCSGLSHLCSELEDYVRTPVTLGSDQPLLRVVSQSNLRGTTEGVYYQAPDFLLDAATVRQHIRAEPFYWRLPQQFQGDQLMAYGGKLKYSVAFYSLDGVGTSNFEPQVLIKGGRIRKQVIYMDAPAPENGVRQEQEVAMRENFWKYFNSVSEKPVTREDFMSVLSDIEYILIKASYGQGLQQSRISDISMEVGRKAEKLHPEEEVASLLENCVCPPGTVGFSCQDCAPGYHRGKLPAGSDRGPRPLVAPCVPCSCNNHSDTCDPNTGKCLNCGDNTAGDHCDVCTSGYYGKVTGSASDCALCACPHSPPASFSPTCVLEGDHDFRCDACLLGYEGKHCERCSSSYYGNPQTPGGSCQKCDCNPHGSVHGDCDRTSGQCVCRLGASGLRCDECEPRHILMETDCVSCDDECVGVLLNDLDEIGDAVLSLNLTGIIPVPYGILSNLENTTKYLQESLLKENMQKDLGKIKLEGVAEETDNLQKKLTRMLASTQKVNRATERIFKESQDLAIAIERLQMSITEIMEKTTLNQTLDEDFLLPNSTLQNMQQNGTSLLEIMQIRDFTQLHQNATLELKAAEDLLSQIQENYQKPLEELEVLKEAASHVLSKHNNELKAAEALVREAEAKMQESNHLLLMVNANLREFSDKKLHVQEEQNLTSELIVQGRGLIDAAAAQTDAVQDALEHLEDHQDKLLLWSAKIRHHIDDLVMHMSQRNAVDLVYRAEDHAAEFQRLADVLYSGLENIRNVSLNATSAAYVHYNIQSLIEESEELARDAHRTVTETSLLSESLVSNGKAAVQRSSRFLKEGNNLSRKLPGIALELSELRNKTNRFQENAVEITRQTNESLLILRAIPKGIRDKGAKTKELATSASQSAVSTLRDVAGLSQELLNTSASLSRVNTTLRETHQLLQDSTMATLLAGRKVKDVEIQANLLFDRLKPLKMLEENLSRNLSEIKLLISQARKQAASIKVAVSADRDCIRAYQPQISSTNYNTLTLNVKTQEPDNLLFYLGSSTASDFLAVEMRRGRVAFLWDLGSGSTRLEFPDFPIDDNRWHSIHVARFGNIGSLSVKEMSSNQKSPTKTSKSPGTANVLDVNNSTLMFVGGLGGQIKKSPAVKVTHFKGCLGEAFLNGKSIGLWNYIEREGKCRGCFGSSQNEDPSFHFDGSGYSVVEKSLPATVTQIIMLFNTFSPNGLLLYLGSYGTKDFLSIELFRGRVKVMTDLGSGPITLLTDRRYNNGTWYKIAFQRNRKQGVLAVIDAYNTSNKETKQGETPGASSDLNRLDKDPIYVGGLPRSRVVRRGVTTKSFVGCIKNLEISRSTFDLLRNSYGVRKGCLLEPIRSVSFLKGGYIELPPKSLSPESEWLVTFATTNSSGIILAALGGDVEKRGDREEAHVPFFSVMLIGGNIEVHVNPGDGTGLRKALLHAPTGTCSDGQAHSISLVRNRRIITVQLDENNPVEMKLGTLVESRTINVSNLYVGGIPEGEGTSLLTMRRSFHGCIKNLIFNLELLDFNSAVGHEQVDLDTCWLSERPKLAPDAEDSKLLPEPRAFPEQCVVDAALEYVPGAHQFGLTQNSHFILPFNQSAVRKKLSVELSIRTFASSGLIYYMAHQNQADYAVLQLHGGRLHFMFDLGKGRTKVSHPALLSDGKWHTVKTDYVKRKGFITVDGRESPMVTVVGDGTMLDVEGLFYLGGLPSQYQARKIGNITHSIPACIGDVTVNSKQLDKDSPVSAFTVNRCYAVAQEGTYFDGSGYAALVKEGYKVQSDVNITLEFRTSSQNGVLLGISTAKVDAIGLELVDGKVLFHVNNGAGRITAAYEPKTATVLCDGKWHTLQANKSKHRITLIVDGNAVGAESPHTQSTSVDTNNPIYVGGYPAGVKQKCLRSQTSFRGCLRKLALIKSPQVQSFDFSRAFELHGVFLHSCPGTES
Lactotransferrin (Homo sapiens), sequence (P02788 whole entry): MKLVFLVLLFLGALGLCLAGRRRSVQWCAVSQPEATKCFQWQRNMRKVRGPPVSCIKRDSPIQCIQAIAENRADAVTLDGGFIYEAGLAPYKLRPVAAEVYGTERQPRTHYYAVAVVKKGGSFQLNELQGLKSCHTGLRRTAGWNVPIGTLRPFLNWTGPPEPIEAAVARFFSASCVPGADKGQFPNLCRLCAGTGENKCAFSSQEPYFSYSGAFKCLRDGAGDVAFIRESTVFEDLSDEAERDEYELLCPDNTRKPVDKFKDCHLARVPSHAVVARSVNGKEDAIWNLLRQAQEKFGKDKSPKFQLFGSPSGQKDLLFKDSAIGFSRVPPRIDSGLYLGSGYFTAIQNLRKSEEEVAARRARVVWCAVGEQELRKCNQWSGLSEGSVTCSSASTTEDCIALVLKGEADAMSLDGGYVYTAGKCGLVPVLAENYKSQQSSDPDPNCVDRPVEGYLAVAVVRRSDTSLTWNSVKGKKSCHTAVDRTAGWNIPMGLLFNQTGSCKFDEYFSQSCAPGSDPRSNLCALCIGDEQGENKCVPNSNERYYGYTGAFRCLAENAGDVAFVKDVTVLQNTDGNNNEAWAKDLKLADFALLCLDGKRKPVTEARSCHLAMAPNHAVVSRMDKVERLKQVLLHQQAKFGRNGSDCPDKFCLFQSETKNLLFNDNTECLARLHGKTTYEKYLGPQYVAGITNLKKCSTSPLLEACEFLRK

Consider `CC[C@H](C)[C@H](NC(=O)[C@H](C)NC(=O)CNC(=O)[C@H](CCCNC(=N)N)NC(=O)[C@@H](NC(=O)CCCC(C)=O)[C@@H](C)O)C(=O)N[C@H](C(=O)N[C@@H](CCC(N)=O)C(=O)N[C@H](C(=O)N1CCC[C@H]1C(=O)N[C@H](C(=O)N[C@@H](CC(C)C)C(=O)NCC(=O)N1CCC[C@H]1C(=O)N[C@H](C(=O)N[C@@H](CCC(N)=O)C(=O)N1CCC[C@H]1C(=O)N[C@H](C(=O)N[C@@H](CCCNC(N)N)C(=O)N[C@H](C(N)=O)C(C)C)[C@@H](C)O[C@H]1O[C@H](CO)[C@@H](O)[C@H](O)[C@@H]1O[C@@H]1O[C@H](CO)[C@@H](O[C@@H]2O[C@H](CO)[C@H](O)[C@H](O)[C@H]2O)[C@H](O)[C@H]1NC(C)=O)[C@@H](C)CC)[C@@H](C)O)[C@@H](C)O)[C@@H](C)CC` ({Hexanoyl(5-oxo)}-TRGAIIQTPTLGPIQPT(X2)[Orn(CH(NH2)2)]V-NH2), for which the outcome (in assay [1]; with Canavalia ensiformis; in assay [4]; in the assay with Arachis hypogaea; in the assay with Erythrina crista-galli; in assay [5]) was Active. The outcome (in the assay on Triticum aestivum; in assay [6]; in [7]; in the assay listed under Homo sapiens [8]) was Active. For the same compound, the result (in the assay filed under Homo sapiens [2]; in assay [3]; with Maackia amurensis; with Datura stramonium) was inactive.

Regarding `CC[C@H](C)[C@H](NC(=O)[C@H](C)NC(=O)CNC(=O)[C@H](CCCNC(=N)N)NC(=O)[C@@H](NC(=O)CCCC(C)=O)[C@@H](C)O)C(=O)N[C@H](C(=O)N[C@@H](CCC(N)=O)C(=O)N[C@H](C(=O)N1CCC[C@H]1C(=O)N[C@H](C(=O)N[C@@H](CC(C)C)C(=O)NCC(=O)N1CCC[C@H]1C(=O)N[C@H](C(=O)N[C@@H](CCC(N)=O)C(=O)N1CCC[C@H]1C(=O)N[C@H](C(=O)N[C@@H](CCCNC(=N)N)C(=O)N[C@H](C(N)=O)C(C)C)[C@@H](C)O[C@H]1O[C@H](CO)[C@@H](O)[C@H](O)[C@@H]1O[C@@H]1O[C@H](CO)[C@@H](O[C@@H]2O[C@H](CO)[C@H](O)[C@H](O)[C@H]2O)[C@H](O)[C@H]1NC(C)=O)[C@@H](C)CC)[C@@H](C)O[C@H]1O[C@H](CO)[C@@H](O)[C@H](O)[C@@H]1O[C@@H]1O[C@H](CO)[C@@H](O[C@@H]2O[C@H](CO)[C@H](O)[C@H](O)[C@H]2O)[C@H](O)[C@H]1NC(C)=O)[C@@H](C)O)[C@@H](C)CC` ({Hexanoyl(5-oxo)}-TRGAIIQTPT(X2)LGPIQPT(X2)RV-NH2), the result (in assay [1]; in the assay on Canavalia ensiformis; in [4]; in the assay on Arachis hypogaea; in the assay on Erythrina crista-galli; in assay [5]) was Active. In addition, the result (in the assay on Triticum aestivum; in assay [6]; in [7]; in the assay filed under Homo sapiens [8]) was Active. In addition, the result (in the assay listed under Homo sapiens [2]; in [3]; with Maackia amurensis; in the assay with Datura stramonium) was inactive.
